Measurements taken from ChEMBL document CHEMBL5247584, “Design, synthesis and evaluation of fused hybrids with acetylcholinesterase inhibiting and Nrf2 activating functions for Alzheimer's disease” (Eur J Med Chem, 2022).
Calls of active or inactive are those of the source. The calls are words filed in the database; no cut-off is given here.

B1: Acetylcholinesterase (Homo sapiens), P22303 (protein)
chain: MRPPQCLLHTPSLASPLLLLLLWLLGGGVGAEGREDAELLVTVRGGRLRGIRLKTPGGPVSAFLGIPFAEPPMGPRRFLPPEPKQPWSGVVDATTFQSVCYQYVDTLYPGFEGTEMWNPNRELSEDCLYLNVWTPYPRPTSPTPVLVWIYGGGFYSGASSLDVYDGRFLVQAERTVLVSMNYRVGAFGFLALPGSREAPGNVGLLDQRLALQWVQENVAAFGGDPTSVTLFGESAGAASVGMHLLSPPSRGLFHRAVLQSGAPNGPWATVGMGEARRRATQLAHLVGCPPGGTGGNDTELVACLRTRPAQVLVNHEWHVLPQESVFRFSFVPVVDGDFLSDTPEALINAGDFHGLQVLVGVVKDEGSYFLVYGAPGFSKDNESLISRAEFLAGVRVGVPQVSDLAAEAVVLHYTDWLHPEDPARLREALSDVVGDHNVVCPVAQLAGRLAAQGARVYAYVFEHRASTLSWPLWMGVPHGYEIEFIFGIPLDPSRNYTAEEKIFAQRLMRYWANFARTGDPNEPRDPKAPQWPPYTAGAQQYVSLDLRPLEVRRGLRAQACAFWNRFLPKLLSATDTLDEAERQWKAEFHRWSSYMVHWKNQFDHYSKQDRCSDL

Legend:
Acetylcholinesterase [1] = molecular target: Acetylcholinesterase (Electrophorus electricus, UniProt O42275); experiment: Inhibition of electric eel AChE using ATC and BTC iodide as substrate preincubated for 5 mins followed by substrate addition and measured after 2 mins by DTNB reagent based assay
Cholinesterase = Cholinesterase (Equus caballus, UniProt P81908); experiment: Inhibition of equine serum BuChE using ATC and BTC iodide as substrate preincubated for 5 mins followed by substrate addition and measured after 2 mins by DTNB reagent based assay
HepG2-ARE-C8 [2] = experiment: Cytotoxicity against human HepG2-ARE-C8 cells assessed as reduction in cell viability at 5 and 20 uM measured for 24 hrs by MTT assay; assay type: functional, cell-based
HepG2-ARE-C8 [3] = experiment: Activation of Nrf2-ARE pathway in human HepG2-ARE-C8 cells at 20 uM measured for 24 hrs by ARE-luciferase assay; assay type: cell-based; conditions: filed as activator
Acetylcholinesterase [4] = molecular target: Acetylcholinesterase (Homo sapiens, UniProt P22303); experiment: Inhibition of human AChE using ATC and BTC iodide as substrate preincubated for 5 mins followed by substrate addition and measured after 2 mins by DTNB reagent based assay
Mus musculus [5] = experiment: Antialzheimer activity against Abeta1-42-induced cognitive impairment ICR mouse model assessed as increase in escape latency at 10 mg/kg, IG administered for 3 to 14 days and measured after 9 to 14 days in presence of donepezil by Morris water maze test; assay type: functional, organism-based; conditions: time 9-14 day
Mus musculus [6] = experiment: Antialzheimer activity against Abeta1-42-induced cognitive impairment ICR mouse model assessed as increase in distance to reach target at 10 mg/kg, IG administered for 3 to 14 days and measured after 9 to 14 days in presence of donepezil by Morris water maze test; assay type: functional, organism-based; conditions: time 9-14 day
Mus musculus [7] = experiment: Antialzheimer activity against Abeta1-42-induced cognitive impairment ICR mouse model assessed as increase in arrival time at 10 mg/kg, IG administered for 3 to 14 days and measured after 9 to 14 days in presence of donepezil by Morris water maze test; assay type: functional, organism-based; conditions: time 9-14 day
Mus musculus [8] = experiment: Antialzheimer activity against Abeta1-42-induced cognitive impairment ICR mouse model assessed as confuse escape tracks at 10 mg/kg, IG administered for 3 to 14 days and measured after 9 to 14 days in presence of donepezil by Morris water maze test; assay type: functional, organism-based; conditions: time 9-14 day
Mus musculus [9] = experiment: Cognitive enhancing effect in amyloid beta (1 to 42)-induced ICR mouse model assessed as increase in ACh level at 20 mg/kg […] in presence of donepezil by ELISA; assay type: functional, organism-based
[10] = compound: Cc1ccc(-c2noc(-c3cccc(OCC4CCN(Cc5cccc(F)c5)CC4)c3)n2)cn1; experiment: Non-competitive inhibition of human AChE assessed as decrease in substrate Vmax with constant Km by Lineweaver-Burk plot analysis

Chain of Acetylcholinesterase (Electrophorus electricus, UniProt O42275) (O42275 whole entry): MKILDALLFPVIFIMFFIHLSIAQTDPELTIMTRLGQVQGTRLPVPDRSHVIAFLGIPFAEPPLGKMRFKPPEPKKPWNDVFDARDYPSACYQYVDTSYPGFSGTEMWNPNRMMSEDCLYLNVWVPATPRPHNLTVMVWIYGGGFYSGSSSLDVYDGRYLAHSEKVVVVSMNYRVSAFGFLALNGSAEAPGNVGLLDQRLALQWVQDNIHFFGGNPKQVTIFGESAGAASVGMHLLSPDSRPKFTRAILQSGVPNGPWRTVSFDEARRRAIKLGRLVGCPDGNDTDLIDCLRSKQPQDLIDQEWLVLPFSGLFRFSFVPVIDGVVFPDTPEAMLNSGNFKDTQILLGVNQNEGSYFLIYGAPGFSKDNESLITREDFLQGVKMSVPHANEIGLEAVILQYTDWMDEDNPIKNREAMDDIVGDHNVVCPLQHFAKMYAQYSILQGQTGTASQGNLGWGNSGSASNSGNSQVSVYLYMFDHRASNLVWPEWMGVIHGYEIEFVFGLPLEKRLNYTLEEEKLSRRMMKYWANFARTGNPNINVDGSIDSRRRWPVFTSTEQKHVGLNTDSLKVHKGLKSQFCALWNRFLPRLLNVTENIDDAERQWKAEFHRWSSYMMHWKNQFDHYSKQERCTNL
Chain of Cholinesterase (P81908 whole entry): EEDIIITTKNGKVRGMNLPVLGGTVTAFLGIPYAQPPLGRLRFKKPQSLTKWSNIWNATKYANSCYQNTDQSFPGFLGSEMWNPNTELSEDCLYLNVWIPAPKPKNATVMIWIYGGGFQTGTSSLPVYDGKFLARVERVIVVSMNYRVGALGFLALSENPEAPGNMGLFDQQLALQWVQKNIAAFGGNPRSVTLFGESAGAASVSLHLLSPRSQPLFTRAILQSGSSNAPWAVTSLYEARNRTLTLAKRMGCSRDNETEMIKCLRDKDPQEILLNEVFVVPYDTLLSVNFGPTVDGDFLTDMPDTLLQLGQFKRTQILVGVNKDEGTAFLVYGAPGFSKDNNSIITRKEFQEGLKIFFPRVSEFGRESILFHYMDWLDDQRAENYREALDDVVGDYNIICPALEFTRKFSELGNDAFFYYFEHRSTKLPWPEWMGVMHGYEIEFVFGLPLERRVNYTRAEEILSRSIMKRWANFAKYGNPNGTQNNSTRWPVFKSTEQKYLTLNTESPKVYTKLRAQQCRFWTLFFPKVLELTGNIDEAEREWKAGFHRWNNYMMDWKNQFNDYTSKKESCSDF

Molecule | IC50 (Acetylcholinesterase [1]) [µM] | IC50 (Cholinesterase) [µM] | Activity (HepG2-ARE-C8 [2]) | also measured
Cc1ccc(-c2noc(-c3cccc(OCC4CCN(Cc5ccc(C#N)cc5)CC4)c3)n2)cn1 | 71.4 | > 100 | inactive | –
Cc1ccc(-c2noc(-c3cccc(OCC4CCN(Cc5ccc(Br)o5)CC4)c3)n2)cn1 | 3.18 | > 100 | inactive | –
Cc1ccc(-c2noc(-c3cccc(OCC4CCN(Cc5ccc(C(F)(F)F)cc5)CC4)c3)n2)cn1 | > 100 | > 100 | inactive | Activity (HepG2-ARE-C8 [3]): Active
Cc1ccc(-c2noc(-c3cccc(OCC4CCN(Cc5ccc(F)cc5)CC4)c3)n2)cn1 | 0.56 | 1.36 | inactive | IC50 (Acetylcholinesterase [4]): 2.99 µM
Cc1ccc(-c2noc(-c3cccc(OCC4CCCN(C(=O)c5ccc(F)cc5)C4)c3)n2)cn1 (configuration not stated) | 4.37 | 5.78 | inactive | –
Cc1ccc(-c2noc(-c3cccc(OCC4CCN(Cc5ccccn5)CC4)c3)n2)cn1 | 1.92 | 5.03 | inactive | –
Cc1ccc(-c2noc(-c3cccc(OCC4CCN(Cc5ccncc5)CC4)c3)n2)cn1 | 16.8 | > 100 | inactive | –
Cc1ccc(-c2noc(-c3cccc(OCC4CCN(C(=O)c5ccc(F)cc5)CC4)c3)n2)cn1 | > 100 | > 100 | inactive | –
Cc1ccc(-c2noc(-c3cccc(OCC4CCCN(C(=O)c5ccccc5)C4)c3)n2)cn1 (configuration not stated) | 15.9 | 13.8 | inactive | Activity (HepG2-ARE-C8 [3]): Active
Cc1ccc(-c2noc(-c3cccc(OCC4CCN(Cc5ccc(F)c(F)c5)CC4)c3)n2)cn1 | 13.9 | 1.66 | inactive | –
Cc1ccc(-c2noc(-c3cccc(OCC4CCN(Cc5ccc(C)c(C)c5)CC4)c3)n2)cn1 | 5.64 | > 100 | inactive | –
Cc1ccc(CN2CCC(COc3cccc(-c4nc(-c5ccc(C)nc5)no4)c3)CC2)cc1 | > 100 | 6.34 | inactive | –
Cc1ccc(-c2noc(-c3cccc(OCC4CCN(Cc5ccc(Cl)cc5)CC4)c3)n2)cn1 | > 100 | > 100 | inactive | –
Cc1ccc(-c2noc(-c3cccc(OCC4CCN(Cc5ccccc5F)CC4)c3)n2)cn1 | 0.1 | 15.5 | inactive | IC50 (Acetylcholinesterase [4]): 0.29 µM
Cc1ccc(-c2noc(-c3cccc(OCC4CCN(Cc5ccc(Cl)o5)CC4)c3)n2)cn1 | 2 | > 100 | inactive | –
Cc1ccc(-c2noc(-c3cccc(OCC4CCN(Cc5ccc(C(C)(C)C)cc5)CC4)c3)n2)cn1 | > 100 | > 100 | inactive | Activity (HepG2-ARE-C8 [3]): Active
COc1ccc(CN2CCC(COc3cccc(-c4nc(-c5ccc(C)nc5)no4)c3)CC2)cc1 | > 100 | > 100 | inactive | –
Cc1ccc(-c2noc(-c3cccc(OCC4CCN(Cc5ccccc5Cl)CC4)c3)n2)cn1 | 0.55 | > 100 | inactive | IC50 (Acetylcholinesterase [4]): 0.57 µM
Cc1ccc(-c2noc(-c3cccc(OCC4CCN(Cc5cccnc5)CC4)c3)n2)cn1 | 1.28 | 3.93 | inactive | –
Cc1ccc(-c2noc(-c3cccc(OCC4CCCN(Cc5ccccc5F)C4)c3)n2)cn1 (configuration not stated) | 8.14 | 17.6 | inactive | –
Cc1ccc(CN2CCCC(COc3cccc(-c4nc(-c5ccc(C)nc5)no4)c3)C2)cc1 (configuration not stated) | 5.39 | > 100 | inactive | –
Cc1ccc(-c2noc(-c3cccc(OCC4CCN(Cc5cccc(Cl)c5)CC4)c3)n2)cn1 | 2.29 | > 100 | inactive | –
Cc1ccc(-c2noc(-c3cccc(OCC4CCN(Cc5ccccc5)CC4)c3)n2)cn1 | 0.29 | 5.05 | inactive | IC50 (Acetylcholinesterase [4]): 0.74 µM
Cc1ccc(-c2noc(-c3cccc(OCC4CCN(Cc5ccc(Br)cc5)CC4)c3)n2)cn1 | > 100 | > 100 | inactive | –
Cc1ccc(-c2noc(-c3cccc(OCC4CCCN(Cc5ccccc5)C4)c3)n2)cn1 (configuration not stated) | 6.46 | 2.78 | inactive | –
Cc1ccc(-c2noc(-c3cccc(OCC4CCN(C(=O)c5ccccc5)CC4)c3)n2)cn1 | 59.4 | > 100 | inactive | –
Cc1ccc(-c2noc(-c3cccc(OCC4CCCN(Cc5ccc(F)cc5)C4)c3)n2)cn1 (configuration not stated) | > 100 | 4.28 | inactive | –
Cc1ccc(-c2noc(-c3ccc(F)c(F)c3)n2)cn1 | – | – | – | Activity (Mus musculus [5]): Active; Activity (Mus musculus [6]): Active; Activity (Mus musculus [7]): Active; Activity (Mus musculus [8]): Active; Activity (Mus musculus [9]): Active
Cc1ccc(-c2noc(-c3cccc(OCC4CCN(Cc5ccco5)CC4)c3)n2)cn1 | 2.53 | > 100 | inactive | –
B1 | – | – | – | Km [10]: 0.233 µM
